Here are results for five compounds from ChEMBL document CHEMBL5465560, “Selectivity Literature for EUbOPEN Chemogenomic Library” (2024).

The structures appear in SMILES notation.

In test [1] the target is T1, Mitogen-activated protein kinase 13 (Homo sapiens) (UniProt O15264).
T1 sequence (whole entry): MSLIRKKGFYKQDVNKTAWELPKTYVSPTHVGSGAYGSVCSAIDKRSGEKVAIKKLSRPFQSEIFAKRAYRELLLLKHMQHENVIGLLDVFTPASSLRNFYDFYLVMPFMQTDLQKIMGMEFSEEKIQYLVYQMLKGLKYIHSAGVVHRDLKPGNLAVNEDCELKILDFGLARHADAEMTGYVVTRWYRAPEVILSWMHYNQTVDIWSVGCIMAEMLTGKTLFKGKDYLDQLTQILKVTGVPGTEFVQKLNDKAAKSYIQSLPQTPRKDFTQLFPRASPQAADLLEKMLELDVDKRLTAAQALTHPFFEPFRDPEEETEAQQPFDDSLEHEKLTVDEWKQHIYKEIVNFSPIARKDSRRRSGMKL
The test is described as follows: Selectivity interaction (KinomeScan (DiscoverX)) EUB0000607a MAPK13. To be noted: at 10 µM.

The target in test [2] is T2, Mitogen-activated protein kinase kinase kinase 6 (Homo sapiens) (UniProt O95382).
T2 sequence (whole entry): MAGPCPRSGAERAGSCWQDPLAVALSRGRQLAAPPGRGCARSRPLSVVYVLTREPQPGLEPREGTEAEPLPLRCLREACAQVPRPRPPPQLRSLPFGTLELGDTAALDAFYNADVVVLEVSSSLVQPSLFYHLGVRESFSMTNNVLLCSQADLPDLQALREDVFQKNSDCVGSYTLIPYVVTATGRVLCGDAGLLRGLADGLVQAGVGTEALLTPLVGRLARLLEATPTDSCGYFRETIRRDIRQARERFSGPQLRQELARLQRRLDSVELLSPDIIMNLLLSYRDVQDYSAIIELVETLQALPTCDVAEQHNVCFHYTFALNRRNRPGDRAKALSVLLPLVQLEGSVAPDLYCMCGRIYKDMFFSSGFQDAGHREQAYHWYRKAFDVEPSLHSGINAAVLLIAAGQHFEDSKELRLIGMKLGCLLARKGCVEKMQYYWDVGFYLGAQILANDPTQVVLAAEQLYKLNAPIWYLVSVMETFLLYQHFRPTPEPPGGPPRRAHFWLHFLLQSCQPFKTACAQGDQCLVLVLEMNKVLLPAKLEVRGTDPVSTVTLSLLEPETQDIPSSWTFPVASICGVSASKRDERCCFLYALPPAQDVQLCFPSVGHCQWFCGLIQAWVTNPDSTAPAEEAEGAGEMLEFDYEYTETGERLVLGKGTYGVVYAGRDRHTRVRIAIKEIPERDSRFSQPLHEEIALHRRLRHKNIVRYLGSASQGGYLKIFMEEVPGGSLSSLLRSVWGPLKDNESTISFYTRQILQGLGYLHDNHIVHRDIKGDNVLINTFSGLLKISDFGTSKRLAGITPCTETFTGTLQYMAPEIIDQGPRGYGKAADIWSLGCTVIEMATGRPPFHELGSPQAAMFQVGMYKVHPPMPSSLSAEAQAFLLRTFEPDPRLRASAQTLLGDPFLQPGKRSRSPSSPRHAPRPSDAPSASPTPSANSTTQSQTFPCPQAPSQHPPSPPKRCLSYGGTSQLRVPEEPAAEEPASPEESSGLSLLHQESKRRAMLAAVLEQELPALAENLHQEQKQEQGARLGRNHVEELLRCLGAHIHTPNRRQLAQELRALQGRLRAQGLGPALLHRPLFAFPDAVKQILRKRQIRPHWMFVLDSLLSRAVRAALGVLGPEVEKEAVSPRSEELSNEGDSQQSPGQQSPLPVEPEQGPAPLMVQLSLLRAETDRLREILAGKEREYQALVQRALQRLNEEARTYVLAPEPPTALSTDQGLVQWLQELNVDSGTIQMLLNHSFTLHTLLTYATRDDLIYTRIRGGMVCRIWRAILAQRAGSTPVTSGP
The test is described as follows: Selectivity interaction (ActivX KiNativ screen (kinase selectivity in THP-1 cell lysates)) EUB0000639a MAP3K6. The test is classed as subcellular. The settings on record: lysate, at 0.2 µM.

Test [3] has as its target CDK4/Cyclin D3 (Homo sapiens) (UniProt P11802+P30281). The test is described as follows: (§1) Selectivity interaction (KinomeScan (DiscoverX)) EUB0000045b CDK4. It is filed as protein-complex assay.
Test [4] deals with Cyclin-dependent kinase 4/cyclin D1 (Homo sapiens) (UniProt P11802+P24385). Described as §1. It is filed as protein-complex assay.
For test [5], the target named is Platelet-derived growth factor receptor alpha (Homo sapiens, UniProt P16234). As to the kind of experiment: Selectivity interaction (Ambit KINOMEscan and KiNATiv profiling in Jurkat cells) EUB0000090b PDGFRA. It is filed as cell-based. To be noted: at 1 µM.
Sequence of Platelet-derived growth factor receptor alpha (P16234 whole entry): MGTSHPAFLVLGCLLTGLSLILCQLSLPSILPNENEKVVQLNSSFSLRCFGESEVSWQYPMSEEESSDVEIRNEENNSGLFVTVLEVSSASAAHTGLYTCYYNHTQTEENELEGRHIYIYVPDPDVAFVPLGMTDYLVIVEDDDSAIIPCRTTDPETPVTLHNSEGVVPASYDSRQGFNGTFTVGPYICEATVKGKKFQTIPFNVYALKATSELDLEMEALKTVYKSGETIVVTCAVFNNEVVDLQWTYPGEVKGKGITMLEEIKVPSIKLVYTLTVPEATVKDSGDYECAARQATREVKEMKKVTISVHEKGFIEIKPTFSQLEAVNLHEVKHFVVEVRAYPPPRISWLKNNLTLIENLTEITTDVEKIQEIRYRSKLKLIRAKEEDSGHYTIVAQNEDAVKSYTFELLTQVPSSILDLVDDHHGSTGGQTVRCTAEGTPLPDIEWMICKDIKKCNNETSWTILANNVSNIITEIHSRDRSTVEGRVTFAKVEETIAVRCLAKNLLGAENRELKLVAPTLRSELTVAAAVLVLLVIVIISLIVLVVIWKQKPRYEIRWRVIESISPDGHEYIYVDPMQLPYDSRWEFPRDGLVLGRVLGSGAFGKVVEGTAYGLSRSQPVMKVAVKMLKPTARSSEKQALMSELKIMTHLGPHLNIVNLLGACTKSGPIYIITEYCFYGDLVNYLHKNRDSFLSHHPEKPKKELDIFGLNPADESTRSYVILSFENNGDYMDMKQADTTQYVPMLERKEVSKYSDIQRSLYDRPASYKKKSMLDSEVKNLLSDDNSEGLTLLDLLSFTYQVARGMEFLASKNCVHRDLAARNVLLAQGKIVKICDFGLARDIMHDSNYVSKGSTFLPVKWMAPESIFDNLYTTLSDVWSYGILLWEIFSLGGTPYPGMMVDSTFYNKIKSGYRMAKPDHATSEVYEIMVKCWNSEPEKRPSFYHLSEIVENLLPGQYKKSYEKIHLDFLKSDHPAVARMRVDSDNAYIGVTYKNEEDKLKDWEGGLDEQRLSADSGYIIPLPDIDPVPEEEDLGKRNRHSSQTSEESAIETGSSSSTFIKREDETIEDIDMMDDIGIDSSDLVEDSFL
The target in test [6] is Ribosomal protein S6 kinase alpha-5 (Homo sapiens) (UniProt O75582). The test is described as follows: Selectivity interaction (Ambit KINOMEscan and KiNATiv profiling in Jurkat cells) EUB0000090b RPS6KA5. To be noted: at 1 µM. It is filed as cell-based.
Sequence of Ribosomal protein S6 kinase alpha-5 (Homo sapiens) (O75582 whole entry, looked up): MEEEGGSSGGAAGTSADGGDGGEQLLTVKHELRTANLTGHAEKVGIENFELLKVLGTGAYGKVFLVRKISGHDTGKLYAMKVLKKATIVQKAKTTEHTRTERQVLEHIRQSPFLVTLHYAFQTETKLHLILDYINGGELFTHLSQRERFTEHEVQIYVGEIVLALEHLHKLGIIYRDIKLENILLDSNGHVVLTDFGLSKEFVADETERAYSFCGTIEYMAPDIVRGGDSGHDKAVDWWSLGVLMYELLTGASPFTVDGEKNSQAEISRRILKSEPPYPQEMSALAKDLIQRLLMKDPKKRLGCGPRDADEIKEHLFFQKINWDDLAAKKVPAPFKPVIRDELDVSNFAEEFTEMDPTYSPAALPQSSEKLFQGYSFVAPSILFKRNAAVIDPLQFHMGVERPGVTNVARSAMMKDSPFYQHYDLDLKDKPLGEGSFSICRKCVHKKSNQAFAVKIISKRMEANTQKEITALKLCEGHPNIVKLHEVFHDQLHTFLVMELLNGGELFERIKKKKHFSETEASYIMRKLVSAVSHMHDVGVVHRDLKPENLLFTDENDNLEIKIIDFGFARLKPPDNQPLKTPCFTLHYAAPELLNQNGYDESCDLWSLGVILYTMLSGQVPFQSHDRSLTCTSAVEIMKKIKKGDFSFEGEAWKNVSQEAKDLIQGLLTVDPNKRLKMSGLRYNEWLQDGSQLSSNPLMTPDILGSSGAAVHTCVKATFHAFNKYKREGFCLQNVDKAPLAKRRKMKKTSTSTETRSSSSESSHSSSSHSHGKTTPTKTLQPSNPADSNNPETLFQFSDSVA
Test [7] addresses T3, Ephrin type-B receptor 4 (Homo sapiens) (UniProt P54760).
T3 sequence (whole entry): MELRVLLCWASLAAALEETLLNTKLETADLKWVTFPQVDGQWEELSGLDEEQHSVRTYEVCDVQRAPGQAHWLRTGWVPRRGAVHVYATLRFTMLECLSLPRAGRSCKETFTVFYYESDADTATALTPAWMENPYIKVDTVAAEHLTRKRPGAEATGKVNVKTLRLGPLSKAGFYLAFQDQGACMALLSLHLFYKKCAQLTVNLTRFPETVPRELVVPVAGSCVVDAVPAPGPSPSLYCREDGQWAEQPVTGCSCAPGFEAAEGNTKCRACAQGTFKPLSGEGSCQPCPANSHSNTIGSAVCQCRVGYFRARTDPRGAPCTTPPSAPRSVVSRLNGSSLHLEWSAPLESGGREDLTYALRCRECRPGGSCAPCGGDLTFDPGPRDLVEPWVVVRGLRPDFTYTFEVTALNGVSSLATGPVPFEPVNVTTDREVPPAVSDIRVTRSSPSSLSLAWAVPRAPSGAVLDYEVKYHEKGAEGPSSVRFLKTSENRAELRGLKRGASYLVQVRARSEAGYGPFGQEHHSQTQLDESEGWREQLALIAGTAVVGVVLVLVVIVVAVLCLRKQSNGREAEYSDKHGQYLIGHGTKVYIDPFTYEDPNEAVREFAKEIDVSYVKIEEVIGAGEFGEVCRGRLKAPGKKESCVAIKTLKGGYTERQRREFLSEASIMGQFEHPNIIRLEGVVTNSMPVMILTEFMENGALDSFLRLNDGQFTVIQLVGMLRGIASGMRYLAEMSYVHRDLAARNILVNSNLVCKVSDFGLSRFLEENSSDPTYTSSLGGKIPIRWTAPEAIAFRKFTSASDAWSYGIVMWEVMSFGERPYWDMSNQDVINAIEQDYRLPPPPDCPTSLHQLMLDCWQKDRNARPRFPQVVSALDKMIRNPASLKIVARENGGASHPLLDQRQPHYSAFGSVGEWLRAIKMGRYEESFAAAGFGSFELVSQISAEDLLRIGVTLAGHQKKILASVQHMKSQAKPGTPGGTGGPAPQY
As to the kind of experiment: Selectivity interaction (Millipore kinase profiler) EUB0000124b EPHB4. The settings on record: at 10 µM.

`CNC(=O)Nc1ccc(-c2nc(N3CC4CCC(C3)O4)c3cnn(C4CCC5(CC4)OCCO5)c3n2)cc1`: the % of control in test [1] came out at 16%.

For `CC[C@@H]1[C@H](F)C(=O)N[C@@H]1COc1nccc2cc(C(N)=O)c(OC)cc12` [ZIMLOVISERTIB], the % of inhibition in test [2] is -13.5%. With `C=CC(=O)Nc1cc(-n2c(=O)ccc3cnc4ccc(-c5ccc(NS(C)(=O)=O)cc5)cc4c32)ccc1C`, the % of control in test [3] (at 1 µM) amounted to 100%; in test [3] (at 10 µM), 93%; in test [4] (at 1 µM) it was 100%; in test [4] (at 10 µM), 100%. As to `CN(C)C/C=C/C(=O)Nc1ccc(C(=O)N2CCCC(Nc3ncc(Cl)c(-c4c[nH]c5ccccc45)n3)C2)cc1` (centres undefined), the results for the % of control in test [5] and in test [6] were 91% and 86%, respectively. Turning to `CC(=O)Nc1cccc(-n2c(=O)n(C3CC3)c(=O)c3c(Nc4ccc(I)cc4F)n(C)c(=O)c(C)c32)c1`, the % of control in test [7] was found to be 124%.
